Patent US11339156B2, “3-(1H-pyrazol-4-yl)pyridine allosteric modulators of the M4 muscarinic acetylcholine receptor” (Merck Sharp & Dohme Corp., priority 2017, dated 2022)

Biological target: T1, human M4 muscarinic acetylcholine receptor (Homo sapiens, UniProt P08173)
T1 construct: expressed in transfected cells
T1 sequence (P08173 1-479): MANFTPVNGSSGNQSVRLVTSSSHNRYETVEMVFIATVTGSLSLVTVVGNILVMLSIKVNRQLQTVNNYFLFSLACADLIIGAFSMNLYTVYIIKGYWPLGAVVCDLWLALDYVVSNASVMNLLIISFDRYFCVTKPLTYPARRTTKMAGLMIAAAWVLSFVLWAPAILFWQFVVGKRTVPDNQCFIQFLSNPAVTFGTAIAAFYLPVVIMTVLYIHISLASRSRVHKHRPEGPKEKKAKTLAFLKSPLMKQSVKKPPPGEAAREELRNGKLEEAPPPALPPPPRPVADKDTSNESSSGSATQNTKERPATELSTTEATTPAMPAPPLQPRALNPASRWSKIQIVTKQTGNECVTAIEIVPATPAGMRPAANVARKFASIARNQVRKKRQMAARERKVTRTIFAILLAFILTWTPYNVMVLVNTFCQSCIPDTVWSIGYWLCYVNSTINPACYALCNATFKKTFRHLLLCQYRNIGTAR
Experiment: human FLIPR-based M4 PAM assay (CHO-K1 cells with human M4 receptor and Gαqi5, calcium dye fluorescence)
Type: cell-based
Details: inflection point of 4 parameter logistic fit; acetylcholine added at 20% of maximum response; read-out: M4PAM IP
Experimental: In a typical experiment the M4 muscarinic acetylcholine receptor modulating activity of the compounds of the present invention was determined in accordance with the following experimental method. CHO-K1 cells stably transfected with human M4 receptor and chimeric G-protein Gαqi5 (Coward P, et al., Analytical Biochemistry, 270:242-248 (1999)) are thawed from liquid N2 storage, resuspended in growth medium, plated in black, clear bottom 384 well plates, and incubated 16-20 hours at 37° C., 5% CO2. On the day of assay, growth medium is removed, the cells are washed 2 times with wash buffer, and cells are incubated in dye loading buffer at 37° C., 5% CO2 for ˜1 hour. Following dye loading the cell plates are placed in a FLIPR Tetra instrument and while monitoring dye fluorescence (excitation […]), 10 uL of test substance at increasing concentrations is added, and fluorescence values are recorded for 4 min. Next, 10 uL of acetylcholine is added (final concentration calculated so as to achieve 20% of the maximum acetycholine response), and the fluorescence reading is continued for 3.5 min. In some cases, a third addition of acetylcholine (final concentration calculated to achieve 70% of the maximal acetylcholine response) is performed. The resulting dose response curves are fit to a 4 parameter logistic equation and the final result is determined as the inflection point (IP) of the curve
CHO-K1 cells stably transfected with human M4 receptor and chimeric G-protein Gαqi5 are thawed from liquid N2 storage, resuspended in growth medium, plated in black, clear bottom 384 well plates, and incubated 16-20 hours at 37° C., 5% CO2.
On the day of assay, growth medium is removed, the cells are washed 2 times with wash buffer, and cells are incubated in dye loading buffer at 37° C., 5% CO2 for ˜1 h. Following dye loading the cell plates are placed in a FLIPR Tetra instrument and while monitoring dye fluorescence ([…]), 10 uL of test substance at increasing concentrations is added, and fluorescence values are recorded for 4 min. Next, 10 uL of acetylcholine is added (final concentration calculated so as to achieve 20% of the maximum acetycholine response), and the fluorescence reading is continued for 3.5 min. In some cases, a third addition of acetylcholine (final concentration calculated to achieve 70% of the maximal acetylcholine response) is performed.

N#Cc1ccc(-c2cnn(CC3(C(F)(F)F)CC3)c2)c(-c2ccn3ccnc3c2)n1 [Example 56, 6-imidazo[1,2-a]pyridin-7-yl-5-(1-{[1-(trifluoromethyl)cyclo-propyl]methyl}-1H-pyrazol-4-yl)pyridine-2-carbonitrile]
EC50: 127 nM

FC(F)(F)C1(Cn2cc(-c3cc(Cl)cnc3-c3ccn4ccnc4c3)cn2)CC1 [Example 57, 7-[5-chloro-3-(1-{[1-(trifluoromethyl)cyclo-propyl]methyl}-1H-pyrazol-4-yl)pyridin-2-yl]imidazo[1,2-a]pyridine]
EC50: 268 nM

Cc1cn2ccc(-c3nc(C#N)ccc3-c3cnn(CC4(C(F)F)CC4)c3)cc2n1 [Example 58, 5-(1-{[1-(difluoromethyl)cyclo-propyl]methyl}-1H-pyrazol-4-yl)-6-(2-methylimidazo[1,2-a]pyridin-7-yl)pyridine-2-carbonitrile]
EC50: 49.1 nM

FC(F)(F)C1(Cn2cc(-c3ccc(Cl)nc3-c3ccn4ccnc4c3)cn2)CC1 [Example 59, 7-[6-chloro-3-(1-{[1-(trifluoromethyl)cyclo-propyl]methyl}-1H-pyrazol-4-yl)pyridin-2-yl]imidazo[1,2-a]pyridine]
EC50: 65.4 nM

Cc1cc(-c2cnn(CC3(C(F)(F)F)CC3)c2)c(-c2ccn3ccnc3c2)nc1Cl [Example 60, 7-[6-chloro-5-methyl-3-(1-{[1-(trifluoromethyl)cyclo-propyl]methyl}-1H-pyrazol-4-yl)pyridin-2-yl]imidazo[1,2-a]pyridine]
EC50: 64.3 nM

Cc1nc2cc(-c3ncc(F)cc3-c3cnn(CC4CC(F)(F)C4)c3)ccc2n1C [Example 61, 5-(3-(1-((3,3-difluorocyclobutyl)methyl)-1H-pyrazol-4-yl)-5-fluoropyridin-2-yl)-1,2-dimethyl-1H-benzo[d]imidazole]
EC50: 161 nM

Cc1nc2cc(-c3nc(C#N)ccc3-c3cnn(CC4(C(C)(F)F)CC4)c3)ccc2n1C [Example 62, 5-(1-{[1-(1,1-difluoroethyl)cyclo-propyl]methyl}-1H-pyrazol-4-yl)-6-(1,2-dimethyl-1H-benzimidazol-5-yl)pyridine-2-carbonitrile]
EC50: 66.1 nM

Cc1nc2cc(-c3nc(C#N)ccc3-c3cnn(CC(C)(C)C)c3)ccn2n1 [Example 63, 6-(2-methyl-[1,2,4]triazolo[1,5-a]pyridin-7-yl)-5-(1-neopentyl-1H-pyrazol-4-yl)picolinonitrile]
EC50: 46.8 nM

CC(C)(C)Cn1cc(-c2ccc(C#N)nc2-c2ccn3cc(C(F)F)nc3c2)cn1 [Example 64, 6-[2-(difluoromethyl)imidazo [1,2-a]pyridin-7-yl]-5-[1-(2,2-dimethylpropyl)-1H-pyrazol-4-yl]pyridine-2-carbonitrile]
EC50: 14.6 nM

CN1Cc2ncc(-c3nc(C#N)ccc3-c3cnn(CC(C)(C)C)c3)cc2C1=O [Example 65, 5-[1-(2,2-dimethylpropyl)-1H-pyrazol-4-yl]-6-(6-methyl-5-oxo-6,7-dihydro-5H-pyrrolo[3,4-b]pyridin-3-yl)pyridine-2-carbonitrile]
EC50: 93.1 nM

CC(C)(C)Cn1cc(-c2ccc(C#N)nc2-c2ccn3cc(C(F)(F)F)nc3c2)cn1 [Example 66, 5-[1-(2,2-dimethylpropyl)-1H-pyrazol-4-yl]-6-[2-(trifluoromethyl)imidazo [1,2-a]pyridin-7-yl]pyridine-2-carbonitrile]
EC50: 54.4 nM

CC(C)(C)Cn1cc(-c2ccc(C#N)nc2-c2ccn3cc(Cl)nc3c2)cn1 [Example 67, 6-(2-chloroimidazo[1,2-a]pyridin-7-yl)-5-[1-(2,2-dimethylpropyl)-1H-pyrazol-4-yl]pyridine-2-carbonitrile]
EC50: 17.7 nM

Cn1nnc2cc(-c3nc(C#N)ccc3-c3cnn(CC(C)(C)C)c3)ccc21 [Example 68, 5-[1-(2,2-dimethylpropyl)-1H-pyrazol-4-yl]-6-(1-methyl-1H-benzotriazol-5-yl)pyridine-2-carbonitrile]
EC50: 55.8 nM

Cn1nc2ccc(-c3nc(C#N)ccc3-c3cnn(CC(C)(C)C)c3)cc2n1 [Example 69, 5-[1-(2,2-dimethylpropyl)-1H-pyrazol-4-yl]-6-(2-methyl-2H-benzotriazol-5-yl)pyridine-2-carbonitrile]
EC50: 243 nM

Cc1nnc2cc(-c3nc(C#N)ccc3-c3cnn(CC(C)(C)C)c3)ccn12 [Example 70, 5-[1-(2,2-dimethylpropyl)-1H-pyrazol-4-yl]-6-(3-methyl[1,2,4]triazolo[4,3-a]pyridin-7-yl)pyridine-2-carbonitrile]
EC50: 102 nM

Cc1ccc(-c2cnn(CC(C)(C)C)c2)c(-c2ccn3cnnc3c2)n1 [Example 71, 7-{3-[1-(2,2-dimethylpropyl)-1H-pyrazol-4-yl]-6-methylpyridin-2-yl}[1,2,4]triazolo[4,3-a]pyridine]
EC50: 55.8 nM

CC(C)(C)Cn1cc(-c2ccc(C#N)nc2-c2ccn3ncnc3c2)cn1 [Example 72, 5-[1-(2,2-dimethylpropyl)-1H-pyrazol-4-yl]-6-[1,2,4]triazolo[1,5-a]pyridin-7-ylpyridine-2-carbonitrile]
EC50: 136 nM

CC(C)(C)Cn1cc(-c2ccc(C#N)nc2-c2ccn3nc(CO)nc3c2)cn1 [Example 73, 5-[1-(2,2-dimethylpropyl)-1H-pyrazol-4-yl]-6-[2-(hydroxymethyl)[1,2,4]triazolo[1,5-a]pyridin-7-yl]pyridine-2-carbonitrile]
EC50: 126 nM

CC(C)CCn1cc(-c2cccnc2-c2ccc3c(c2)C(=O)NC3)cn1 [Example 74, 6-{3-[1-(3-methylbutyl)-1H-pyrazol-4-yl]pyridin-2-yl}-2,3-dihydro-1H-isoindol-1-one]
EC50: 337 nM

Cc1ccc(-c2cnn(CCC(C)C)c2)c(-c2ccc3c(c2)CNC3)n1 [Example 75, 5-{6-methyl-3-[1-(3-methylbutyl)-1H-pyrazol-4-yl]pyridin-2-yl}-2,3-dihydro-1H-isoindole]
EC50: 106 nM

Cc1ccc(-c2cnn(CCC(C)C)c2)c(-c2ccc3c(c2)CN(C(=O)OC(C)(C)C)C3)n1 [Example 76, tert-butyl 5-{6-methyl-3-[1-(3-methylbutyl)-1H-pyrazol-4-yl]pyridin-2-yl}-1,3-dihydro-2H-isoindole-2-carboxylate]
EC50: 76 nM

CC(C)CCn1cc(-c2cc(Cl)cnc2-c2ccc3cn(C)nc3c2)cn1 [Example 77, 6-{5-chloro-3-[1-(3-methylbutyl)-1H-pyrazol-4-yl]pyridin-2-yl}-2-methyl-2H-indazole]
EC50: 278 nM

CC(C)CCn1cc(-c2cc(Cl)cnc2-c2ccc3scnc3c2)cn1 [Example 78, 5-{5-chloro-3-[1-(3-methylbutyl)-1H-pyrazol-4-yl]pyridin-2-yl}-1,3-benzothiazole]
EC50: 204 nM

CC(C)(C)Cn1cc(-c2ccc(C#N)nc2-c2ccc3nn[nH]c3c2)cn1 [Example 79, 6-(1H-benzotriazol-6-yl)-5-[1-(2,2-dimethylpropyl)-1H-pyrazol-4-yl]pyridine-2-carbonitrile]
EC50: 38.4 nM

CC(C)(C)Cn1cc(-c2cc(F)cnc2-c2ccn3ccnc3c2)cn1 [Example 80, 7-{3-[1-(2,2-dimethylpropyl)-1H-pyrazol-4-yl]-5-fluoropyridin-2-yl}imidazo[1,2-a]pyridine]
EC50: 97.7 nM

Cc1cn2ccc(-c3nc(C#N)ccc3-c3cnn(CC(C)(C)C)c3)cc2n1 [Example 81, 5-[1-(2,2-dimethylpropyl)-1H-pyrazol-4-yl]-6-(2-methylimidazo[1,2-a]pyridin-7-yl)pyridine-2-carbonitrile]
EC50: 24.7 nM

CC(C)(C)Cn1cc(-c2ccc(C#N)nc2-c2ccn3c(F)cnc3c2)cn1 [Example 82, 5-[1-(2,2-dimethylpropyl)-1H-pyrazol-4-yl]-6-(3-fluoroimidazo[1,2-a]pyridin-7-yl)pyridine-2-carbonitrile]
EC50: 51.6 nM

CC(C)(C)Cn1cc(-c2ccc(C(F)(F)F)nc2-c2ccn3ccnc3c2)cn1 [Example 83, 7-{3-[1-(2,2-dimethylpropyl)-1H-pyrazol-4-yl]-6-(trifluoromethyl)pyridin-2-yl}imidazo[1,2-a]pyridine]
EC50: 46 nM
